Measurements from patent publication US20020151459A1, “Methods for identifying compounds useful for inhibiting farnesyl diphosphate synthase” (Merck & Co., Inc., priority 2000, published 2002).
Entries after “also recorded” stand apart in the source; their conditions may differ. Values belong to the molecule of their own block, whether it stands above or below them.

Key:
[1] = biological target: T1, rat liver squalene synthase (Rattus norvegicus, UniProt Q02769); details: cited from earlier work
T1 construct: host or cells: rat liver
T1 sequence (Q02769 1-416): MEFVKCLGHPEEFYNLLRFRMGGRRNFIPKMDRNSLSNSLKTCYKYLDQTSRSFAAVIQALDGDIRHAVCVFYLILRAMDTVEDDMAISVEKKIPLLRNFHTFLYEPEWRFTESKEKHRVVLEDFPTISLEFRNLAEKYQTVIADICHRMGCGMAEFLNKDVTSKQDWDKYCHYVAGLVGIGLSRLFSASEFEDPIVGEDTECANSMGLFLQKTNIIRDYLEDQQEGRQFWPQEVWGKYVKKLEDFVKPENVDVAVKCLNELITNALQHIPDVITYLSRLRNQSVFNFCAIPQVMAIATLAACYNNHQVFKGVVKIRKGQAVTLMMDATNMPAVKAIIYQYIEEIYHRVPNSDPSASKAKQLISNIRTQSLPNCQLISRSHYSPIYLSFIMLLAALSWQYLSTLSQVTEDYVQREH

[2] = biological target: T2, human recombinant farnesyl diphosphate synthase (Homo sapiens, UniProt P14324)
T2 sequence (P14324 67-419 limits assumed): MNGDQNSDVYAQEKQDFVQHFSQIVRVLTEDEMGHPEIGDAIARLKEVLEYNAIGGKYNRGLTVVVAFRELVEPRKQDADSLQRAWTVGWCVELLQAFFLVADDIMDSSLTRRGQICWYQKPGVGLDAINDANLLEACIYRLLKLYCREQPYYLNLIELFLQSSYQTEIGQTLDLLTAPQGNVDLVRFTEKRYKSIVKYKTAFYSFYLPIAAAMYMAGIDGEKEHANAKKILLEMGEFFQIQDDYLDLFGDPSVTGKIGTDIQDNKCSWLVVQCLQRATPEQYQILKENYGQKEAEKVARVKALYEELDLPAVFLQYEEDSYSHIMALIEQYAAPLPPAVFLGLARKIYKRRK

[3] = biological target: Farnesyl protein transferase (FTase) (Homo sapiens, UniProt P49354+P49356)
[4] = biological target: geranylgeranyl protein transferase I (GGTase I) (Homo sapiens, UniProt P49354+P53609)
[5] = biological target: geranylgeranyl protein transferase II (GGTase II) (Homo sapiens, UniProt P53611+Q92696)
[6] = tested on: protein prenylation in osteoclasts; details: at 60 μM
[7] = tested on: mevalonate-derived non-saponifiable lipids in osteoclasts; details: alendronate 0-60 μM
[8] = tested on: protein prenylation in osteoclasts; experiment: cells; details: Mus musculus, Osteoclast, read-out: IC50, labeling of prenylated proteins, osteoclasts, 15 μM lovastatin, 2 hours pretreatment, 3 hours of labeling
[9] = tested on: mevalonate-derived non-saponifiable lipids in osteoclasts; experiment: cells; details: Mus musculus, Osteoclast, read-out: IC50, incorporation of label from MVL into non-saponifiable lipids, osteoclasts, 2 hours pretreatment, 3 hours of labeling
[10] = tested on: osteoclasts in culture; details: cited from earlier work
[11] = tested on: sterol synthesis; details: read-out: IC50, block of sterol synthesis; incorporation of 14C-MVA into sterol, rat liver cell-free system; cited from earlier work
[12] = biological target: T2, human recombinant farnesyl diphosphate synthase; experiment: biochemical

Chain of geranylgeranyl protein transferase II (GGTase II) (Q92696 whole entry): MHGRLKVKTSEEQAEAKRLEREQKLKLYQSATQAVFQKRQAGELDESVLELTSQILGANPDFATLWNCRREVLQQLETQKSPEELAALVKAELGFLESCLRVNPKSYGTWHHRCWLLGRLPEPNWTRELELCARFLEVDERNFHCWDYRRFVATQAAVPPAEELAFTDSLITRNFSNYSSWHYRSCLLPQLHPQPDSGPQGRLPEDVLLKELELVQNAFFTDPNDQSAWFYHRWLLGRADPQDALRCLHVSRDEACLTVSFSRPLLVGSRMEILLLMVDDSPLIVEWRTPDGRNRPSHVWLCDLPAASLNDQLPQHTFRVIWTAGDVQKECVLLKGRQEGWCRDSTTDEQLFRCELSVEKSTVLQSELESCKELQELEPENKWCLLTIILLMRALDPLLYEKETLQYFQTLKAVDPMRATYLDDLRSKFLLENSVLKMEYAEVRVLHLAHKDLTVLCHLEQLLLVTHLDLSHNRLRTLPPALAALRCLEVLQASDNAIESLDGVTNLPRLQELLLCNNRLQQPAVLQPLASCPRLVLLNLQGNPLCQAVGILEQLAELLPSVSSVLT
Chain of geranylgeranyl protein transferase II (GGTase II) (P53611 whole entry): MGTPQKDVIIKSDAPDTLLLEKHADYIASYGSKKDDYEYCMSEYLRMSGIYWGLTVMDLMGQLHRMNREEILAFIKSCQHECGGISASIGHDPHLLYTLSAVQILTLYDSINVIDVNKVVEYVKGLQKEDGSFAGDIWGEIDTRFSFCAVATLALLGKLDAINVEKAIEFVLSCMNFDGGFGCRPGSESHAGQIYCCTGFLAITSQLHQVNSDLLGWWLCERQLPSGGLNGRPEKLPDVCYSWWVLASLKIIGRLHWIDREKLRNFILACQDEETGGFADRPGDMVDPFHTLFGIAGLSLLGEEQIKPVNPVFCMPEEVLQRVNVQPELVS

SMILES: O=P(O)(O)C(O)(CCN1CCCC1)P(=O)(O)O [EB 1053, 1-hydroxy-3-(1-pyrrolidinyl)-propylidene-1,1-bisphosphonic acid]
inhibition of squalene synthase (in words) [1]: potent, nanomolar inhibitors

SMILES: O=P(O)(O)C(NC1CCCCCC1)P(=O)(O)O [YM 175, Cycloheptylaminomethylene-1,1-bisphosphonic acid]
inhibition of squalene synthase (in words) [1]: potent, nanomolar inhibitors

inhibition of FPP synthase (in words) [2]: effectively inhibit | inhibition of FTase (in words) [3]: not inhibited | inhibition of GGTase I (in words) [4]: not inhibited | inhibition of GGTase II (in words) [5]: not inhibited | IC50 [8]: ~15 µM | IC50 [9]: ~15 µM
SMILES: NCCCC(O)(P(=O)(O)O)P(=O)(O)O [alendronate, 4-amino-1-hydroxybutylidene-1,1-bisphosphonic acid monosodium trihydrate]
labeling of prenylated proteins (in words) [6]: essentially disappears | lowering of incorporation of label from MVL into non-saponifiable lipids [7]: up to 80% | inhibition of squalene synthase (in words) [1]: comparatively little effect | osteoclast formation and bone resorption (in words) [10]: inhibited | IC50 [11]: 0.168 µM

SMILES: O=P(O)(O)C(Cl)(Cl)P(=O)(O)O [clodronate, 1,1-dichloromethylene-1,1-diphosphonic acid]
inhibition of FPP synthase (in words) [2]: no inhibition observed; also recorded: little or no effect

inhibition of FPP synthase (in words) [2]: little or no effect | IC50 [12]: 80 µM
SMILES: CC(O)(P(=O)(O)O)P(=O)(O)O [etidronate, 1-hydroxyethane-1,1-diphosphonic acid]

SMILES: CC[C@H](C)C(=O)O[C@H]1C[C@@H](C)C=C2C=C[C@H](C)[C@H](CC[C@@H]3C[C@@H](O)CC(=O)O3)[C@H]21 [lovastatin]
osteoclast formation and bone resorption (in words) [10]: inhibited

SMILES: NCCC(O)(P(=O)(O)O)P(=O)(O)O [pamidronate, 3-amino-1-hydroxypropylidene-1,1-bisphosphonic acid]
inhibition of FPP synthase (in words) [2]: effectively inhibit | inhibition of squalene synthase (in words) [1]: comparatively little effect | IC50 [11]: 0.42 µM
